Source: patent US20160091487A1, “ENGINEERING INDIVIDUALLY ADDRESSABLE CELLULAR SPHEROIDS USING AQUEOUS TWO-PHASE SYSTEMS” (priority 2012, published 2016)

Test system: MDA-MB-157 spheroids
Assay: Viability of ATPS-generated cancer cell spheroids treated with cisplatin (PRESTO BLUE enzymatic assay)
Assay type: cell-based
Details: cisplatin 25 to 200 μM, four days incubation
Source text: Component 1 contains 5%(w/w) polyethylene glycol (PEG, Mw: 35,000) and component 2 contains 12.8%(w/w) Dextran (DEX, Mw: 500,000). […] First, the PEG phase is loaded into wells of a well plate (destination plate) and this plate is placed on the work surface of a robotic liquid handler (FIG. 2). Then cells are harvested from a culture dish, mixed with the DEX phase at a 1:1 volumetric ratio to reduce DEX concentration to 6.4% (w/w), and loaded into a second plate (source plate). This plate is also placed on the work surface of the liquid handler. Pipette tips are mounted onto the dispense head of the liquid handler (FIG. 3) and are immersed into the source plate to load a defined volume (˜0.3 microliters) of the cell suspension in DEX phase. After retraction from the source plate, pipette tips are lowered into the destination plate and dispense their content. Dispensed solution forms a single droplet containing cells in each well and the droplet remains immiscible from its surrounding PEG phase (FIG. 4a). Cells aggregate and form an individual spheroid in each well (FIG. 4b and FIG. 5). […] The drug, diluted with culture media, was renewed once by the addition of 50 μL after two days of incubation.

## N.N.[Cl][Pt][Cl] [cisplatin]
  percent viability trend against drug concentration: gradual decrease as the cisplatin concentration increases
